molecular target: Neuronal acetylcholine receptor subunit alpha-7 (Homo sapiens, UniProt P36544); assay: Positive allosteric modulation of human alpha 7 nAChR expressed in HEK cells co-expressing human RIC3 assessed as increase in acetylcholine-induced channel current at holding potential of -60 mV incubated for 58 secs followed by acetylcholine treatment for 1 sec by patch clamp electrophysiology assay; assay type: cell-based
Sequence (P36544 whole entry): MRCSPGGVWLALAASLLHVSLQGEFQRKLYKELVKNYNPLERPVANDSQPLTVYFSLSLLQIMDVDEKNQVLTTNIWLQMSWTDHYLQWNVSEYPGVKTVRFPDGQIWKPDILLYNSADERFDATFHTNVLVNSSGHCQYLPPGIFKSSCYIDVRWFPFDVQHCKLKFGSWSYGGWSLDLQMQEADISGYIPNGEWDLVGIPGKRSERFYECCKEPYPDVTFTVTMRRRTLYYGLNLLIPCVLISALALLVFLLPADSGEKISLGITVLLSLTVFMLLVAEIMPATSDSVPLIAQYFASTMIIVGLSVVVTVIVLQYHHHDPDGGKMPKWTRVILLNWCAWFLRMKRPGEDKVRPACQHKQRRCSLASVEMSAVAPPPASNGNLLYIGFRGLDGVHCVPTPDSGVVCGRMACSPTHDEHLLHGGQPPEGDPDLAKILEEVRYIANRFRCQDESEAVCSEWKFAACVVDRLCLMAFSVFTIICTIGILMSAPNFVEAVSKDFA

EC50 [µM] | SMILES
0.098 | CC1(C)[C@@H](c2ccc(S(N)(=O)=O)cc2)[C@@H]1c1noc(C2CC(F)(F)C2)n1
0.069 | CC1(C)[C@@H](c2ccc(S(N)(=O)=O)cc2)[C@@H]1c1noc(C2CCCC2)n1

Continued, molecule first:

SMILES | EC50 [µM]
CC1(C)[C@@H](c2ccc(S(N)(=O)=O)cc2)[C@@H]1c1noc(-c2ccc(F)cc2)n1 | 0.093
NS(=O)(=O)c1ccc([C@H]2[C@H](c3noc(-c4ccccc4)n3)C2(F)F)cc1 | 0.083
CC(Oc1cccc(Cl)c1)c1nc([C@H]2[C@H](c3ccc(S(N)(=O)=O)cc3)C2(C)C)no1 (stereo not given in full) | 0.093
